# According to patent publication US20060128640A1 (priority 2001, published 2006):
# Like-named read-outs stand apart in the source and are kept apart here.
# Columns and labels:
# [1] = test system: murine mammary adenocarcinoma MA13/C; conditions: for highest non-toxic total dose, component alone: single agent IV, Taxotere d14, 23, flavopiridol d14-17, 20-23
# [2] = test system: mammary adenocarcinoma MA 13/C; conditions: for % bwl (nadir): mouse, in vivo, iv; for HNTD (DT), total dose / HNTD (highest non-toxic dose), per dose: single agent IV, days 15, 21
# Protocol: A product is considered to be active if log10 cell kill is greater than or equal to 0.7. A product is considered to be very active if log10 cell kill is greater than 2.8.
# The animals subjected to the experiment, generally mice, are subcutaneously grafted bilaterally with 30 to 60 mg of a tumor fragment on day zero. The animals bearing tumors are mixed before being subjected to the various treatments and controls. In the case of treatment of advanced tumors, tumors are allowed to develop to the desired size, animals having insufficiently developed tumors being eliminated. The selected animals are distributed at random to undergo the treatments and controls. […] Chemotherapy generally begins from 3 to 22 days after grafting, depending on the type of tumor. The animals are observed every day. The different animal groups are weighed 3 or 4 times a week until the maximum weight loss is attained, and the groups are then weighed at least once a week until the end of the trial.
# The tumors are measured 2 or 3 times a week until the tumor reaches approximately 2 g, or until the animal dies, if this occurs before the tumor reaches 2 g. The animals are autopsied after death.
# [3] = Taxotere alone IV 48.1 mg/kg/dose d14, 23 (total 96.8)
# [4] = Flavo alone IV at HNTD 2.9 mg/kg/dose (total 23.2 mg/kg)
# [5] = Flavopiridol alone IV 1.75 mg/kg/dose d14-17, 20-23 (total 14)
# [6] = Flavopiridol alone IV 2.9 mg/kg/dose d14-17, 20-23 (total 23.2)
# [7] = Flavopiridol alone IV 4.8 mg/kg/dose d14-17, 20-23 (total 38.4)
smiles,measurement,setting,value
"CC(=O)O[C@@]12CO[C@@H]1C[C@H](O)[C@@]1(C)C(=O)[C@H](O)C3=C(C)[C@@H](OC(=O)[C@H](O)[C@@H](NC(=O)OC(C)(C)C)c4ccccc4)C[C@@](O)([C@@H](OC(=O)c4ccccc4)[C@H]21)C3(C)C [Taxotere ®, docetaxel]",CR (complete response),[1]; [3],6/6
same,Comments (toxicity level of the dose),[1]; [3],HNTD
same,lck Gross,[1]; [3],4.4
same,% bwl (nadir),"[1]; Taxotere alone IV 48.1 mg/kg/dose d14, 23 (total 96.8), nadir day 28",8 (28) %
same,Comments: DD,"[1]; Taxotere alone IV 78.1 mg/kg/dose d14, 23 (total 156.2)",2/6 DD
same,% bwl (nadir),"[1]; Taxotere alone IV 78.1 mg/kg/dose d14, 23 (total 156.2), nadir day 29",20 (29) %
same,log cell kill net,[1]; docetaxel alone at HNTD 48.1 mg/kg/injection (total 96.8 mg/kg),3
same,"HNTD, per injection","[1]; docetaxel alone, days 14 and 23",48.1 mg/kg/injection
same,"highest non-toxic total dose, component alone",[1],96.8 mg/kg
same,lck (log10 cell kill),"MA13/C; Taxotere alone IV 30 mg/kg days 14, 25 (total 60)",0.9
same,"HNTD (DT), total dose","MA13/C; mouse, in vivo",(60) mg/kg
same,"HNTD, per dose","MA13/C; mouse, in vivo",30 mg/kg
same,% bwl (nadir),"MA13/C; mouse, in vivo, iv, 30 mg/kg",3.6%
same,Comments (toxicity level of the dose),"MA13/C; mouse, in vivo, iv, 30 mg/kg",HNTD
same,lck (log10 cell kill),"[2]; Taxotere alone IV 30.0 mg/kg days 15, 21 (total 60.0)",4.7
same,CR (complete response),"[2]; Taxotere alone IV 30.0 mg/kg days 15, 21 (total 60.0), 30 mg/kg",5/5 CR
same,CR (complete response),"[2]; Taxotere alone IV 30.0 mg/kg days 15, 21 (total 60.0), listed as Taxotere®, 30 mg/kg",complete response in all 5 of the mice
same,% bwl (nadir),[2]; 30 mg/kg,8 (27) %
same,"HNTD (DT), total dose",[2],(60.0) mg/kg
same,"HNTD (highest non-toxic dose), per dose",[2],30.0 mg/kg
"CN1CC[C@H](c2c(O)cc(O)c3c(=O)cc(-c4ccccc4Cl)oc23)[C@H](O)C1 [Flavopiridol, cis-5,7-dihydroxy-2-(2-chlorophenyl)-8-[4-(3-hydroxy-1-methyl)-piperidinyl]-1-benzopyran-4-one]",activity rating,[1]; [4],inactive
same,log cell kill net,[1]; [4],−0.4
same,"highest non-toxic dose (HNTD), per dose","[1]; Flavo alone IV once a day, day 14 to 17 and 20-23",2.9 mg/kg/dose
same,CR (complete response),[1]; [5],0/6
same,lck Gross,[1]; [5],0.0
same,% bwl (nadir),"[1]; Flavopiridol alone IV 1.75 mg/kg/dose d14-17, 20-23 (total 14), day 24",+10 (24) %
same,Comments (toxicity level of the dose),[1]; [6],HNTD
same,lck Gross,[1]; [6],1.0
same,CR (complete response),"[1]; Flavopiridol alone IV 2.9 mg/kg/dose d14-17, 20-23 (total 23.2), 2.9 mg/kg",0/6
same,CR (complete response),"[1]; Flavopiridol alone IV 2.9 mg/kg/dose d14-17, 20-23 (total 23.2), listed as Flavo, 2.9 mg/kg",no complete regression
same,% bwl (nadir),"[1]; Flavopiridol alone IV 2.9 mg/kg/dose d14-17, 20-23 (total 23.2), nadir day 18",3 (18) %
same,% bwl (nadir),[1]; [7],>20%
same,Comments: DD,[1]; [7],4/5 DD
same,"highest non-toxic total dose, component alone",[1],23.2 mg/kg
same,lck (log10 cell kill),"MA13/C; Flavopiridol alone po 2.7 mg/kg days 14-18, 21-25 (total 27)",0.1
same,% bwl (nadir),"MA13/C; mouse, in vivo, po, 2.7 mg/kg",11.6%
same,lck (log10 cell kill),"[2]; Flavopiridol alone IV 6.0 mg/kg days 15, 21 (total 12.0)",0.4
same,CR (complete response),"[2]; Flavopiridol alone IV 6.0 mg/kg days 15, 21 (total 12.0), 6 mg/kg",0/5 CR
same,CR (complete response),"[2]; Flavopiridol alone IV 6.0 mg/kg days 15, 21 (total 12.0), listed as flavopiridol, 6 mg/kg",no compete responses in the 5 mice tested
same,% bwl (nadir),[2]; 6 mg/kg,6 (16) %
same,"HNTD (DT), total dose",[2],(12.0) mg/kg
same,"HNTD (highest non-toxic dose), per dose",[2],6.0 mg/kg
